Test results published in ChEMBL document CHEMBL1159077, “Discovery and SAR of substituted 3-oxoisoindoline-4-carboxamides as potent inhibitors of poly(ADP-ribose) polymerase (PARP) for the treatment of cancer” (Bioorg Med Chem Lett, 2010).

Assays:
[1] = molecular target: T1, Poly [ADP-ribose] polymerase 1 (Homo sapiens, UniProt P09874); experiment: Inhibition of PARP1 by microplate scintillation counting
[2] = molecular target: T1, Poly [ADP-ribose] polymerase 1; experiment: Inhibition of PARP1 in human C41 cells; format: cell-based

T1 sequence (P09874 whole entry): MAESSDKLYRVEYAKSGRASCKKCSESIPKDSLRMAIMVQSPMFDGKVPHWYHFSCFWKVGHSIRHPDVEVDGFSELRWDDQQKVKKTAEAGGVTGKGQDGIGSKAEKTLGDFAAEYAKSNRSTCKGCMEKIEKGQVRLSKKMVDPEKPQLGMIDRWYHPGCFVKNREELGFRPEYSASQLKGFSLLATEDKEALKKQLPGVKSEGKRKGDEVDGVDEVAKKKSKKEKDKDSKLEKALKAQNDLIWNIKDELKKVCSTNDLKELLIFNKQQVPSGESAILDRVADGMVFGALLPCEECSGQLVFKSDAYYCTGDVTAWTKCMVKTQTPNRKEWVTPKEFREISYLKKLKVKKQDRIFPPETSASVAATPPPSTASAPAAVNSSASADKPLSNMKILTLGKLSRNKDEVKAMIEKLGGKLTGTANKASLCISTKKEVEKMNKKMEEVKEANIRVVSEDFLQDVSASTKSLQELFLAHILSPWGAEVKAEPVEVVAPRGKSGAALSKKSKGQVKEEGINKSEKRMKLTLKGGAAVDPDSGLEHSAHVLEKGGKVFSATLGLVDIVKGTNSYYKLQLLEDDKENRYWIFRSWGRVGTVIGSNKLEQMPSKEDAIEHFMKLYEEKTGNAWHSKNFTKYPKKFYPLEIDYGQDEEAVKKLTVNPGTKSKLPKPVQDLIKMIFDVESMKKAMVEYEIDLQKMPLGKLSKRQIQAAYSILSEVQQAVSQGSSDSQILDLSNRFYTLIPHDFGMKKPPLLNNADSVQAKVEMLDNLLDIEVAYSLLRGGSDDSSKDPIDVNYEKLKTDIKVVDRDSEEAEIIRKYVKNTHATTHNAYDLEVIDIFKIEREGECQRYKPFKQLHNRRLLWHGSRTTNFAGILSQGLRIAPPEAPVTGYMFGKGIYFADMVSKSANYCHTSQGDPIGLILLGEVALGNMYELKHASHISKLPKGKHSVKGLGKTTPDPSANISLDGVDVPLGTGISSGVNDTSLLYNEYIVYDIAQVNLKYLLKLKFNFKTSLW

| Compound | Ki [1] [nM] | EC50 [2] [nM] |
| --- | --- | --- |
| Cc1cccc(N2Cc3cccc(C(N)=O)c3C2=O)c1 | 261 |  |
| NC(=O)c1cccc2c1C(=O)N(Cc1cccnc1)C2 | > 9500 |  |
| NC(=O)c1cccc2c1C(=O)N(CC1CCCN1)C2 (stereo unspecified) | 377 | 374 |
| NC(=O)c1cccc2c1C(=O)N(c1ccc(CN3CCCC3)cc1)C2 | 53 | 53 |
| NC(=O)c1cccc2c1C(=O)N(c1cccc(CN3CCCC3)c1)C2 | 391 |  |
| NC(=O)c1cccc2c1C(=O)N(c1cccc(C3CCNCC3)c1)C2 | 314 |  |
| NC(=O)c1cccc2c1C(=O)N(C1CCCCC1)C2 | 172 | > 1000 |
| NC(=O)c1cccc2c1C(=O)N(C1CCNC1)C2 (stereo unspecified) | 59 | 160 |
| NC(=O)c1cccc2c1C(=O)N(C1CCNCC1)C2 | 33 | 51 |
| NC(=O)c1cccc2c1C(=O)N(C1CCCNC1)C2 (stereo unspecified) | 140 |  |
| NC(=O)c1cccc2c1C(=O)N(CC1CCNCC1)C2 | 384 |  |
| NC(=O)c1cccc2c1C(=O)N(CC1CCCNC1)C2 (stereo unspecified) | 164 |  |
| CN1CCN(c2ccc(N3Cc4cccc(C(N)=O)c4C3=O)cc2)CC1 | 48 | 22 |
| NC(=O)c1cccc2c1C(=O)N(c1ccc(C3CCNCC3)cc1)C2 | 32 | 120 |
| CC(C)CN1Cc2cccc(C(N)=O)c2C1=O | 112 | > 1000 |
| CN1Cc2cccc(C(N)=O)c2C1=O | 123 |  |
| CN(C)c1ccc(N2Cc3cccc(C(N)=O)c3C2=O)cc1 | 70 | 372 |
